Results: US11759445B2, “Use of Rivastigmine in preparation of anti-radiation medicament” (priority 2020, dated 2023)

Columns and labels:
crypt stem cells Lgr5+ = experiment: In vitro medicament screening experiment on crypt stem cells Lgr5+ of mice (GFP fluorescence after 10 Gy irradiation); assay type: cell-based; conditions: Mus musculus, light or radiation study, 240 h, 10 μM medicament, GFP fluorescence 10 d after irradiation, read-out: increment of the Lgr5+ stem cells compared with IR groups
Text: 1.2.1 In Vitro Medicament Screening Experiment on Crypt Stem Cells Lgr5^+ of Mice
1) Lgr5-GFP mice were sacrificed by cervical dislocation, and enterocoelia was opened and the whole small intestine was taken out, and then the small intestine was put to a pre-cooled HBSS buffer solution to remove mesentery and adipose tissues as much as possible, and dissected longitudinally to wash out contents of the small intestine.
2) Villi and contents inside the intestinal cavity were scraped by a glass slide, and then the remaining intestinal cavity was washed for once to twice.
3) The whole small intestine was quickly cut into 5 mm intestinal segments.
4) The intestinal segments were transferred to a 50 mL centrifugal tube, and 25 mL HBSS and 250 μL penicillin/streptomycin solution were added for incubation for 10 min at room temperature, and then the centrifugal tube was slightly inverted to mix evenly for 2-3 times.
5) Supernatant was absorbed, and 10 mL new HBSS was added to wash the intestinal segments for 2-3 times till the final intestinal segments were cleaned thoroughly, then a 70 μm filter sieve was used for filtering to retain the remaining intestinal segments.
6) The intestinal segments were transferred to a 50 mL centrifugal tube, and added to a 10 mL pre-blended digestive solution for incubation for 5 min at room temperature.
7) The centrifugal tube was shaken violently or swirled for several seconds, and then a 70 μm filter sieve was used for filtering.
8) The intestinal segments were transferred to a new 50 mL centrifugal tube, and a 10 mL digestive solution was added for incubation on ice for 30 min, and then the centrifugal tube was shaken violently or swirled for several seconds, and then a 70 μm filter sieve was used for filtering. A black 96-well plate was put on an incubator for preheating during the incubation on ice.
9) The intestinal segments were transferred to a new 50 mL centrifugal tube, and 10 mL HBSS was added, then the centrifugal tube was shaken violently or swirled for several seconds, and a 70 μm filter sieve was used for filtering to retain filtrate.
10) […] for 10 min at 4° C.
11) Supernatant was removed, and crypt cells were precipitated and resuspended by a crypt cell culture solution, and then cell counting was performed microscopically.
12) Cells were diluted by a ratio of the crypt cell culture solution to matrigel=1:1 (v/v), so as to ensure that per 10 μL of mixed liquor contained about 100 crypt cells.
13) The preheated black 96-well plate was taken out, and 10 μL mixed liquor was added to the center of each well, and then the well plate was put to an incubator for 10 min at 37° C.
14) After the matrigel was solidified, each medicament in Bioactive Compound Library (790 types) was diluted by a medium to a final concentration of 10 μM, and then 100 μL was added to per well.
15) The 96-well plate was put on a multi-mode microplate reader to read fluorescence intensity under the conditions of excitation wavelength at 485 nm and emission wavelength at 528 nm, and to record the values on the same day.
16) Crypt cells were irradiated with 10 Gy radiation, and the fluorescence intensity for consecutive 10 d after irradiation was recorded; afterwards, the background fluorescence intensity of a blank control was removed, and a fluorescence intensity curve was drawn; and the test results were shown in FIGS. 1-4.
Crypt stem cells Lgr5^+ separated from Lgr5-GFP mice in vivo carried GFP fluorescence, and the change of the mean fluorescence intensity (MFI) represented the proliferation of crypt stem cells Lgr5*. […]

C57BL/6 mice = experiment: Survival of mice at a lethal dose (10 Gy whole body irradiation) after intraperitoneal medicament; assay type: in vivo, mouse; conditions: for influence on the survival time of mice after receiving irradiation: i.p. half an hour before 10 Gy whole body irradiation
Text: 1.2.2 Experiment for Verifying the Survival Rate of Mice at a Lethal Dose
Mice were subjected to 10 Gy whole body irradiation with an X-ray biological irradiator in Department of Medicine having a dose rate of 1.5 Gy/min; and before irradiation, mice were intraperitoneally injected the medicament screened out via an in vitro experiment, and then continuously raised in a temporary storage room of the animal center after irradiation.
4 to 6 week-age C57BL/6 mice were selected as experimental subjects, and divided into control groups and experimental groups, and subjected to 10 Gy whole body irradiation with a dose rate of 1.5 Gy/min; mice in the experimental subjects were respectively intraperitoneally injected the medicaments screened half an hour before irradiation, and the survival time was recorded after irradiation. Among the medicaments, water-soluble Don-H, Pra-C and DL-Pan are dissolved by normal saline, and others were dissolved by 5 g/100 mL DMSO+edible oil. The medicament was prepared into a stock solution having a corresponding concentration according to the volume that 20 g mice were intraperitoneally injected 100 μL medicament.

SMILES	fold induction at 10 µM (crypt stem cells Lgr5+)	influence on the survival time of mice after receiving irradiation (C57BL/6 mice; dose not stated)	other results
C[n+]1ccccc1/C=N/O [Pralidoxime chloride]	4.8		
CCN(C)C(=O)Oc1cccc([C@H](C)N(C)C)c1 [Rivastigmine]	14.2		survival of mice after 30 d (C57BL/6 mice; 1 mg/kg i.p. before 10 Gy whole body irradiation): still survival mice after 30 d; survival of mice after 30 d (C57BL/6 mice; 2 mg/kg i.p. before 10 Gy whole body irradiation): still survival mice after 30 d; survival rate (C57BL/6 mice; 2 mg/kg i.p. before 10 Gy whole body irradiation, after 30 d, P<0.001 vs control group): greater than 40%; survival rate of the mice (C57BL/6 mice; intraperitoneally injected, 10 Gy whole body irradiation, 30 days post irradiation, dose not stated): greater than 40%
N#C[C@@H]1C[C@@H]2C[C@@H]2N1C(=O)[C@@H](N)C12CC3CC(CC(O)(C3)C1)C2 [Saxagliptin hydrate]	15.9	no statistical significance	
CCCOc1ccn2c(C(C)=O)cc(-c3ccccc3S(C)(=O)=O)c2c1 [GSK2801]	14.7	no statistical significance	
CN1CCCCC1CCN1c2ccccc2Sc2ccc([S+](C)[O-])cc21 (stereo not drawn) [Mesoridazine Besylate]	4.2	no statistical significance	
C[C@H](CCC(=O)O)[C@H]1CC[C@H]2[C@@H]3C(=O)C[C@@H]4CC(=O)CC[C@]4(C)[C@H]3CC(=O)[C@]12C [Dehydrocholic acid]	3.4		survival time of the mice (C57BL/6 mice; 10 mg/kg i.p. half an hour before 10 Gy whole body irradiation): did not improve the survival time; survival time of the mice (C57BL/6 mice; 20 mg/kg i.p. half an hour before 10 Gy whole body irradiation): did not improve the survival time; extension of the death time of the mice (C57BL/6 mice; 40 mg/kg i.p. half an hour before 10 Gy whole body irradiation, P<0.01): 2 days; survival time of the mice (C57BL/6 mice; 60 mg/kg i.p. half an hour before 10 Gy whole body irradiation): did not improve the survival time; survival time of the mice (C57BL/6 mice; 80 mg/kg i.p. half an hour before 10 Gy whole body irradiation): did not improve the survival time; survival time of the mice (C57BL/6 mice; 100 mg/kg i.p. half an hour before 10 Gy whole body irradiation): did not improve the survival time
CC(C)(CO)C(O)C(=O)NCCCO (racemic) [DL-Panthenol]	3.5	no statistical significance	
